Test [1] deals with T1, Alpha amylase (Homo sapiens, UniProt P0DUB6).
T1 sequence (P0DUB6 whole entry): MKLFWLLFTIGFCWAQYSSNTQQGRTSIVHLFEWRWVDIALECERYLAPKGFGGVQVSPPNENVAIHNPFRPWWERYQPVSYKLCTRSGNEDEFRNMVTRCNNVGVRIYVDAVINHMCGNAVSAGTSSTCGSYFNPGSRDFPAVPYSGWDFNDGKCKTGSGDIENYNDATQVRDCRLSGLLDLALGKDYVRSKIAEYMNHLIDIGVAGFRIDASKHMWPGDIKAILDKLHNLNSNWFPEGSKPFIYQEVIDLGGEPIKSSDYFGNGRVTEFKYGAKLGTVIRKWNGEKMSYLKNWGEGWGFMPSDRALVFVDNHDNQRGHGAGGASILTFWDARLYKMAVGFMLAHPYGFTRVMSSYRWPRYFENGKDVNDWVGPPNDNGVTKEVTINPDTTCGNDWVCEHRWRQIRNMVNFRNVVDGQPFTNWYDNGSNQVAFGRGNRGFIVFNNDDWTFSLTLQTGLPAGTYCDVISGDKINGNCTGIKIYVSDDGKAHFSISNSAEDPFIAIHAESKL
Briefly: Inhibition of alpha amylase (unknown origin) using starch as substrate preincubated for 30 mins followed by substrate addition and measured after 30 mins by absorbance based analysis.

Test [2] can be described thus: Antioxidant activity assessed as DPPH radical scavenging activity incubated for 30 mins under dark condition. The test is classed as functional.

In brackets after ≈: the same amount, converted by molar mass.

In general, IC50 refers to the concentration that gives 50% inhibition. With `COc1ccc(-c2nc3c(n2Cc2cn(-c4ccc(F)cc4)nn2)C(=O)c2ccccc2C3=O)c(OC)c1OC`, the IC50 in test [1] is 23.94 µg/mL (≈ 44.4 µM); in test [2] it was 10.41 µg/mL (≈ 19.3 µM).
In the case of `CCCCn1cc(Cn2c(-c3ccc(F)cc3)nc3c2C(=O)c2ccccc2C3=O)nn1`, the 50% inhibitory concentration (IC50) was found to be 19.72 µg/mL (≈ 45.9 µM) in test [1] and 9.41 µg/mL (≈ 21.9 µM) in test [2].
On the same counts, the results for `COc1ccc(-n2cc(Cn3c(-c4cccc(OC)c4)nc4c3C(=O)c3ccccc3C4=O)nn2)cc1` are 22.73 µg/mL (≈ 46.2 µM) and 9.8 µg/mL (≈ 19.9 µM).
In the case of `COc1ccc(-c2nc3c(n2Cc2cn(-c4ccccc4)nn2)C(=O)c2ccccc2C3=O)cc1`, the figures for the IC50 in test [1] and in test [2] were 20.73 µg/mL (≈ 44.9 µM) and 10.15 µg/mL (≈ 22 µM), respectively.
As for `COc1ccc(-c2nc3c(n2Cc2cn(-c4ccc(C)cc4)nn2)C(=O)c2ccccc2C3=O)cc1`, the IC50 in test [1] is 24.58 µg/mL (≈ 51.7 µM); in test [2] it was 10.14 µg/mL (≈ 21.3 µM).
For `COc1ccc(-c2nc3c(n2Cc2cn(-c4ccc([N+](=O)[O-])cc4)nn2)C(=O)c2ccccc2C3=O)cc1`, the IC50 in test [1] is 18.62 µg/mL (≈ 36.8 µM); in test [2], 10.88 µg/mL (≈ 21.5 µM).
For the compound `COc1cccc(-c2nc3c(n2Cc2cn(-c4ccc([N+](=O)[O-])cc4)nn2)C(=O)c2ccccc2C3=O)c1`, the IC50 in test [1] came to 21.18 µg/mL (≈ 41.8 µM); in test [2], 9.2 µg/mL (≈ 18.2 µM).
Take `CCCCn1cc(Cn2c(-c3ccc(OC)cc3OC)nc3c2C(=O)c2ccccc2C3=O)nn1`: the IC50 in test [1] stood at 20.64 µg/mL (≈ 43.8 µM); in test [2] it was 10.26 µg/mL (≈ 21.8 µM).
On the same counts, the results for `O=C1c2ccccc2C(=O)c2c1nc(-c1ccc(F)cc1)n2Cc1cn(-c2ccc(F)cc2)nn1` are 22.04 µg/mL (≈ 47.2 µM) and 9.57 µg/mL (≈ 20.5 µM).
Take `CCCCn1cc(Cn2c(-c3ccc(OC)c(OC)c3OC)nc3c2C(=O)c2ccccc2C3=O)nn1`: the IC50 in test [1] is 23.49 µg/mL (≈ 46.8 µM); in test [2] it was 9.23 µg/mL (≈ 18.4 µM).
As to `COc1ccc(-c2nc3c(n2Cc2cn(-c4ccc(F)cc4)nn2)C(=O)c2ccccc2C3=O)cc1`, the IC50 amounted to 24.19 µg/mL (≈ 50.5 µM) in test [1] and 10.58 µg/mL (≈ 22.1 µM) in test [2].
On the same counts, the results for `COc1ccc(-c2nc3c(n2Cc2cn(-c4ccccc4)nn2)C(=O)c2ccccc2C3=O)c(OC)c1` are 25.44 µg/mL (≈ 51.8 µM) and 11.09 µg/mL (≈ 22.6 µM).
Turning to `CCCCn1cc(Cn2c(-c3cccc(OC)c3)nc3c2C(=O)c2ccccc2C3=O)nn1`, the figures for the half-maximal inhibitory concentration (IC50) in test [1] and in test [2] were 21.11 µg/mL (≈ 47.8 µM) and 9.82 µg/mL (≈ 22.2 µM), respectively.
For `COc1ccc(-c2nc3c(n2Cc2cn(-c4ccccc4)nn2)C(=O)c2ccccc2C3=O)c(OC)c1OC`, the values for the IC50 in test [1] and in test [2] were 18.51 µg/mL (≈ 35.5 µM) and 9.63 µg/mL (≈ 18.5 µM), respectively.
In the same order, the values of `COc1ccc(-n2cc(Cn3c(-c4ccc(OC)c(OC)c4OC)nc4c3C(=O)c3ccccc3C4=O)nn2)cc1` are 17.83 µg/mL (≈ 32.3 µM) and 8.99 µg/mL (≈ 16.3 µM).
Take `COc1cccc(-c2nc3c(n2Cc2cn(-c4ccc(F)cc4)nn2)C(=O)c2ccccc2C3=O)c1`: the IC50 was found to be 18.41 µg/mL (≈ 38.4 µM) in test [1] and 9.3 µg/mL (≈ 19.4 µM) in test [2].
As for `COc1cccc(-c2nc3c(n2Cc2cn(-c4ccc(C)cc4)nn2)C(=O)c2ccccc2C3=O)c1`, the IC50 in test [1] came to 18.42 µg/mL (≈ 38.7 µM); in test [2], 9.5 µg/mL (≈ 20 µM).
In the case of `O=C1c2ccccc2C(=O)c2c1nc(-c1ccc(F)cc1)n2Cc1cn(-c2ccc([N+](=O)[O-])cc2)nn1`, the IC50 in test [1] was 18.63 µg/mL (≈ 37.7 µM); in test [2], 9.69 µg/mL (≈ 19.6 µM).
With `COc1ccc(-n2cc(Cn3c(-c4ccc(F)cc4)nc4c3C(=O)c3ccccc3C4=O)nn2)cc1`, the IC50 was 19.87 µg/mL (≈ 41.4 µM) in test [1] and 10.84 µg/mL (≈ 22.6 µM) in test [2].
With `COc1ccc(-c2nc3c(n2Cc2cn(-c4ccc([N+](=O)[O-])cc4)nn2)C(=O)c2ccccc2C3=O)c(OC)c1`, the values for the IC50 in test [1] and in test [2] were 20.24 µg/mL (≈ 37.7 µM) and 10.07 µg/mL (≈ 18.8 µM), respectively.
Take `COc1ccc(-c2nc3c(n2Cc2cn(-c4ccc(F)cc4)nn2)C(=O)c2ccccc2C3=O)c(OC)c1`: the IC50 stood at 23.81 µg/mL (≈ 46.7 µM) in test [1] and 9.92 µg/mL (≈ 19.5 µM) in test [2].
On to `COc1ccc(-c2nc3c(n2Cc2cn(-c4ccc([N+](=O)[O-])cc4)nn2)C(=O)c2ccccc2C3=O)c(OC)c1OC`, for which the IC50 amounted to 18.11 µg/mL (≈ 32 µM) in test [1] and 10.1 µg/mL (≈ 17.8 µM) in test [2].
Regarding `COc1cccc(-c2nc3c(n2Cc2cn(-c4ccccc4)nn2)C(=O)c2ccccc2C3=O)c1`, the IC50 was determined as 25.07 µg/mL (≈ 54.3 µM) in test [1] and 10.05 µg/mL (≈ 21.8 µM) in test [2].
On the same counts, the results for `COc1ccc(-c2nc3c(n2Cc2cn(-c4ccc(C)cc4)nn2)C(=O)c2ccccc2C3=O)c(OC)c1OC` are 22.87 µg/mL (≈ 42.7 µM) and 10.19 µg/mL (≈ 19 µM).
With `Cc1cc(C(C)(C)C)c(O)c(C(C)(C)C)c1` [BUTYLATED HYDROXYTOLUENE], the IC50 in test [2] came to 9.41 µg/mL (≈ 42.7 µM).
On to `Cc1ccc(-n2cc(Cn3c(-c4ccc(F)cc4)nc4c3C(=O)c3ccccc3C4=O)nn2)cc1`, for which the IC50 in test [1] was 24.08 µg/mL (≈ 52 µM); in test [2] it was 9.61 µg/mL (≈ 20.7 µM).
Regarding `O=C1c2ccccc2C(=O)c2c1nc(-c1ccc(F)cc1)n2Cc1cn(-c2ccccc2)nn1`, the half-maximal inhibitory concentration (IC50) in test [1] worked out at 26.01 µg/mL (≈ 57.9 µM); in test [2] it was 10.32 µg/mL (≈ 23 µM).
In the same order, the values of `CCCCn1cc(Cn2c(-c3ccc(OC)cc3)nc3c2C(=O)c2ccccc2C3=O)nn1` are 24.25 µg/mL (≈ 54.9 µM) and 10.76 µg/mL (≈ 24.4 µM).
Consider `COc1ccc(-c2nc3c(n2Cc2cn(-c4ccc(C)cc4)nn2)C(=O)c2ccccc2C3=O)c(OC)c1`, for which the figures for the half-maximal inhibitory concentration (IC50) in test [1] and in test [2] were 21.71 µg/mL (≈ 42.9 µM) and 11.19 µg/mL (≈ 22.1 µM), respectively.
Regarding `COc1ccc(-c2nc3c(n2Cc2cn(-c4ccc(OC)cc4)nn2)C(=O)c2ccccc2C3=O)cc1`, the IC50 in test [1] was found to be 25.49 µg/mL (≈ 51.9 µM); in test [2], 9.55 µg/mL (≈ 19.4 µM).
On the same counts, the results for `COc1ccc(-n2cc(Cn3c(-c4ccc(OC)cc4OC)nc4c3C(=O)c3ccccc3C4=O)nn2)cc1` are 19.3 µg/mL (≈ 37 µM) and 10.65 µg/mL (≈ 20.4 µM).

The values are drawn from ChEMBL document CHEMBL5385899, “Design, synthesis, spectroscopic characterization, single crystal X-ray analysis, in vitro α-amylase inhibition assay, DPPH free radical evaluation and computational studies of naphtho[2,3-d]imidazole-4,9-dione appended 1,2,3-triazoles” (Eur J Med Chem, 2023).
